In BindingDB's records for doi:10.1021/jm00003a001 (Glaxo Research Institute, 1995):

Target: DNA topoisomerase 1 (Bos taurus)
Test: Inhibition of topoisomerase I activity was determined in vitro by using the cleavable complex assay(calf thymus)

Structure (SMILES)	IC50
CC[C@@]1(O)C(=O)OCc2c1cc1n(c2=O)Cc2c-1nc1cc3c(cc1c2CCl)OCCO3 [15-chloromethyl-8-ethyl-8-hydroxy-(8S)-2,3,8,9,12,14-hexahydro-11H-[1,4]dioxino[2,3-g]pyrano[3',4':6,7]indolizino[1,2-b]quinoline-9,12-dione]	0.011 µM
CC[C@@]1(O)C(=O)OCc2c1cc1n(c2=O)Cc2c-1nc1cc3c(cc1c2CCl)OCO3 [14-chloromethyl-7-ethyl-7-hydroxy-(7S)-7,8,11,13-tetrahydro-10H-[1,3]dioxolo[4,5-g]pyrano[3',4':6,7]indolizino[1,2-b]quinoline-8,11-dione]	0.015 µM
CC[C@@]1(O)C(=O)OCc2c1cc1n(c2=O)Cc2c-1nc1cc3c(cc1c2CN1CCN(C)CC1)OCCO3 [8-ethyl-8-hydroxy-15-(4-methylhexahydro-1-pyrazinylmethyl)-(8S)-2,3,8,9,12,14-hexahydro-11H-[1,4]dioxino[2,3-g]pyrano[3',4':6,7]indolizino[1,2-b]quinoline-9,12-dione with trifluoroaceticacid]	0.416 µM
